Data from patent US20120276577A1, “Method for Determining the Susceptibility of a Cell Strain to Drugs” (ASSISTANCE PUBLIQUE - HOPITAUX DE PARIS, priority 2009, published 2012).
Where two headings read alike, the source gives them in different places.

Legend:
Candida albicans [1] = conditions: CLSI, cited from earlier work
Candida albicans [2] = assay: MALDI-TOF MS minimal profile change concentration (MPCC) determination; assay type: cell-based; conditions: for FCZ MPCCs: 15 h culture, MALDI-TOF MS
Description: Fluconazole (FCZ) pure powder (Sigma Chemical CO., Saint-Louis, Mo., USA) was dissolved in pure water. Serial dilutions of drug (concentration ranged from 256 to 0.25 μg/ml), made into RPMI 1640 medium (with glutamine and without bicarbonate, Invitrogen) buffered with MOPS (0.165M) (Sigma Chemical CO., Saint-Louis, Mo., USA) and adjusted to pH 7 with sodium hydroxide (5N), were dispensed in 600 μl aliquots into sterile 24-well flat-bottomed microtiter plates.
After cultivation during 48 h at 37° C. on Sabouraud agar medium, yeasts cells were transferred into RPMI 1640 medium (with glutamine but without bicarbonate, Invitrogen) buffered with MOPS (0.165M) (Sigma Chemical CO., Saint-Louis, Mo., USA), and adjusted to pH 7 with sodium hydroxide (5N). Then, 600 μl of RPMI with yeast (2.106 yeasts/imp were added to 600 μl of RPMI with FCZ into microtiter plates (final FCZ concentration ranged from 128 to 0.125 μg/ml), or in RPMI alone as negative control. Culture was performed in a 30° C. incubator for 15 hours, with continuous agitation.
Yeast extraction was performed as follows: • (1) samples were centrifuged and the supernatant removed before the pellet was washed twice in pure water; • (2) the pellet was then resuspended in 300 μL of pure water, and 900 μL of ethanol were then added; • (3) after another round of centrifugation, 50 μL of 70% formic acid and 50 μL pure acetonitrile were added to the residual pellet and subsequent solution was repeatedly and thoroughly vortexed before a final centrifugation. Each centrifugation was performed at 10 000 rpm for 10 minutes at room temperature.
The supernatant was distributed (0.5 μl droplet) in duplicate on a MALDI AnchorChip sample slide (Bruker-Daltonics, Bremen, Germany), then air-dried. The α-cyano-4-hydroxycinnamic acid (CHCA) matrix (Bruker-Daltonics), prepared at a concentration of 50 mg/ml in 50% acetonitrile and 50% water with 0.1% TFA, was sonicated for 5 min before being spotted (0.5 μl) over the dried sample. A DH5a Escherichia coil protein extract (Bruker-Daltonics) was deposited on the calibration spot of the Anchorchip for external calibration. MALDI analysis were performed on a Bruker Autoflex I MALDI TOF mass spectrometer with a nitrogen laser (337 nm) operating in linear mode with delayed extraction (260 ns) at 20 kV accelerating voltage. Each spectrum was automatically collected in the positive ion mode as an average of 500 laser shots (50 laser shots at 10 different spot positions). Laser energy was set just above the threshold for ion production. Mass range between 3,000 and 20,000 m/z (ratio mass/charge) was selected to collect the signals with the AutoXecute tool of flexControl acquisition software (Version 2.4; Bruker-Daltonics). Only peaks with a signal/noise ratio >3 were considered. […] For each cultivation condition, we collected mass spectra from 3 biological replicates and 2 technical replicates.
Data obtained from the flex control acquisition software were a set of lists of mass/charge peaks and corresponding intensities, one list for each spectrum. For each FCZ concentration (11 FCZ concentrations and without FCZ), 6 spectra, obtained from 3 biological replicates tested in duplicate, were collected, so the whole initial set of data consisted of 72 spectra.
Alignment was performed using a method based on the mean spectrum, using an approach similar to that recommended by Coombes et al. (Coombes K R, Baggerly K A, and Morris J S: Pre-Processing Mass Spectrometry Data. Fundamentals of Data Mining in Genomics and Proteomics, W Dubitzky, M Granzow, and D Berrar, eds. Kluwer, Boston, 79-99 (2007)).
The mean spectrum of the 72 spots was computed, a simple peak detection algorithm was run on the mean spectrum, and a selection of the final peak locations was based on the mean intensity of the peak. For each spectrum, the peaks corresponding to the final peak locations were retained for the statistical analysis. […]

[3] = C. albicans clinical isolate DSY281 (group A)
[4] = C. albicans clinical isolate DSY284 (group A)
[5] = C. albicans clinical isolate DSY289 (group F)
[6] = C. albicans clinical isolate DSY290 (group G)
[7] = C. albicans clinical isolate DSY292 (group G)
[8] = C. albicans clinical isolate DSY 294 (group B)
[9] = C. albicans clinical isolate DSY296 (group B)
[10] = C. albicans clinical isolate DSY347 (group F)
[11] = C. albicans clinical isolate DSY544 (group C)
[12] = C. albicans clinical isolate DSY2260 (group D)
[13] = C. albicans clinical isolate DSY2262 (group D)
[14] = C. albicans clinical isolate DSY2284 (group H)
[15] = C. albicans clinical isolate DSY2285 (group H)
[16] = C. albicans clinical isolate DSY2321 (group E)
[17] = C. albicans clinical isolate DSY2322 (group E)
[18] = C. albicans clinical isolate DYS775 (group C)
[19] = C. albicans reference strain ATCC 90028

## OC(Cn1cncn1)(Cn1cncn1)c1ccc(F)cc1F [FCZ, Fluconazole]
Candida albicans [1]; [3]
  FCZ MICs: 1 µg/mL
Candida albicans [1]; [4]
  FCZ MICs: 32 µg/mL
Candida albicans [1]; [5]
  FCZ MICs: 128 µg/mL
Candida albicans [1]; [6]
  FCZ MICs: 0.5 µg/mL
Candida albicans [1]; [7]
  FCZ MICs: 128 µg/mL
Candida albicans [1]; [8]
  FCZ MICs: 0.25 µg/mL
Candida albicans [1]; [9]
  FCZ MICs: 128 µg/mL
Candida albicans [1]; [10]
  FCZ MICs: 0.25 µg/mL
Candida albicans [1]; [11]
  FCZ MICs: 0.5 µg/mL
Candida albicans [1]; [12]
  FCZ MICs: 8 µg/mL
Candida albicans [1]; [13]
  FCZ MICs: 64 µg/mL
Candida albicans [1]; [14]
  FCZ MICs: 0.25 µg/mL
Candida albicans [1]; [15]
  FCZ MICs: 16 µg/mL
Candida albicans [1]; [16]
  FCZ MICs: 0.25 µg/mL
Candida albicans [1]; [17]
  FCZ MICs: 16 µg/mL
Candida albicans [1]; [18]
  FCZ MICs: 128 µg/mL
Candida albicans [1]; [19]
  FCZ MICs: 0.25 µg/mL
Candida albicans [2]; [3]
  FCZ MPCCs: 0.5 µg/mL
Candida albicans [2]; [4]
  FCZ MPCCs: 8 µg/mL
Candida albicans [2]; [5]
  FCZ MPCCs: 128 µg/mL
Candida albicans [2]; [6]
  FCZ MPCCs: 0.25 µg/mL
Candida albicans [2]; [7]
  FCZ MPCCs: 128 µg/mL
Candida albicans [2]; [8]
  FCZ MPCCs: 0.25 µg/mL
Candida albicans [2]; [9]
  FCZ MPCCs: 128 µg/mL
Candida albicans [2]; [10]
  FCZ MPCCs: 0.125 µg/mL
Candida albicans [2]; [11]
  FCZ MPCCs: 0.25 µg/mL
Candida albicans [2]; [12]
  FCZ MPCCs: 4 µg/mL
Candida albicans [2]; [13]
  FCZ MPCCs: 32 µg/mL
Candida albicans [2]; [14]
  FCZ MPCCs: 0.5 µg/mL
Candida albicans [2]; [15]
  FCZ MPCCs: 16 µg/mL
Candida albicans [2]; [16]
  FCZ MPCCs: 0.5 µg/mL
Candida albicans [2]; [17]
  FCZ MPCCs: 16 µg/mL
Candida albicans [2]; [18]
  FCZ MPCCs: 64 µg/mL
Candida albicans [2]; [19]
  FCZ MPCCs: 0.25 µg/mL
Candida albicans [2]; DSY2260 C. albicans, cultures exposed up to 2 μg/ml FCZ, 15 h
  mass spectrometry spectra compared with the control culture: indistinguishable
